Article PMC4038613, “A New Class of Multimerization Selective Inhibitors of HIV-1 Integrase” (PLoS Pathogens, 2014)
Read-outs that look alike come from different tables or passages of the source.

Experiments:
[1] = tested on: HIV-1 virions in HEK293T cells; test: Viral entry assay; assay type: cell-based; settings: virions produced with 1 µM KF116
[2] = tested on: HIV-1 particles; test: Virus production (Gag p24 ELISA) and virion protein processing (immunoblot); assay type: cell-based; settings: 1 µM KF116
Description: HEK293T cells (2×10^6 cells/100 mm culture dish in 10 ml of complete medium) were transfected with HIV-1 provirus (pNL4-3) and cultured for 24 h to ensure expression of the provirus as described above. Next, the cells were treated with the indicated inhibitor or diluent control (DMSO) for 1 h. The culture supernatant was replaced with fresh complete medium containing either the inhibitor or DMSO, and cells were then cultured for another 24 h to allow for the production of HIV-1 particles in the presence of the inhibitor or diluent control. The virus containing cell-free supernatant was collected, filtered through 0.45 µm filter, and the amounts of viral particles produced was measured by HIV-1 Gag p24 ELISA (ZeptoMetrix) following manufacturer's protocol. Equivalent amounts of virions (∼5 µg p24 based on HIV-1 p24 ELISA) were concentrated over a 25% sucrose cushion by ultra-centrifugation at 28,000 rpm for 2 h at 4°C in SW41 rotor (Beckman). Pelleted virions were lysed in 100 µL RIPA buffer containing 50 mM Tris (pH 8.0), 150 mM NaCl, 0.1% SDS, 1% Triton-X, 1% deoxycholic acid, and 2 mM PMSF. Indicated amounts of concentrated virions were resolved by SDS-PAGE (4–12%, Invitrogen) and immunoblotted.
HEK293T cells were transfected with HIV-1 provirus (pNL4-3). […] (A) Virus-containing cell-free supernatant were harvested and cell-free Gag was measured by HIV-1 Gag p24 ELISA. […]

[3] = tested on: HIV-1; test: Antiviral assay, early stage (inhibitor added to target cells); assay type: cell-based; settings: called IC50
[4] = tested on: HIV-1NL4-3; test: microbe, parasite or virus in culture; assay type: cell-based
[5] = tested on: LEDGF/p75-dependent HIV-1 integration; test: HIV-1 integration site distribution (ligation-mediated PCR, 454-pyrosequencing); assay type: cell-based
[6] = tested on: VSV-G pseudotyped HIV-1-Luc; assay type: cell-based
[7] = tested on: VSV-G pseudotyped HIV-1-Luc in wild type HEK293T cells; test: microbe, parasite or virus in culture; assay type: cell-based; settings: Human immunodeficiency virus 1, HEK-293T
[8] = tested on: HIV-1 expression; assay type: cell-based; settings: for inhibition of HIV-1 expression: target cells
[9] = tested on: VSV-G pseudotyped HIV-1-Luc in PSIP1 KO HEK293T cells; test: microbe, parasite or virus in culture; assay type: cell-based; settings: for EC50: Human immunodeficiency virus 1, HEK-293T
[10] = tested on: HIV-1; test: Antiviral assay, late stage (inhibitor added to producer cells); assay type: cell-based; settings: Human immunodeficiency virus 1, virions prepared in presence of inhibitor, untreated target cells; called IC50
Description: Results represent mean ± SD from three independent experiments.
For late stage experiments, the progeny virions were prepared in the presence of the indicated concentrations of the test inhibitor or diluent control (DMSO) and were then used to infect untreated target cells.

[11] = tested on: HIV-1MJ4; test: Antiviral assay against HIV-1 clade C (pMJ4); assay type: cell-based; settings: Human immunodeficiency virus 1, IN residue Ala125, read-out: IC50 for inhibition of HIV-1MJ4 replication
[12] = tested on: A128T IN HIV-1NL4-3; test: A128T HIV-1 infectivity in TZM-bl cells; assay type: cell-based; settings: particles produced in presence of inhibitor
[13] = target: HIV-1 IN (Human immunodeficiency virus type 1 group M subtype B, UniProt P12497); settings: IC50 for inhibiting IN-LEDGF/p75 binding divided by EC50 for aberrant IN multimerization; fold
Description: HTRF-based IN multimerization and IN-LEDGF/p75 binding assays were carried out as described previously [33]. The HTRF signal was recorded using a Perkin Elmer Multimode EnSpire plate reader.

[14] = tested on: initiation of reverse transcription; test: tRNALys3 primer extension assay; assay type: biochemical, HIV-1; settings: virions produced with 1 µM KF116
[15] = Target, 5 µM, *** P<0.001 vs DMSO
[16] = target cells, 10 µM, *** P<0.001 vs DMSO

SMILES: Cc1nc(-c2nc3ccc(Cl)cc3[nH]2)c(C)c(-c2ccccc2)c1C(OC(C)(C)C)C(=O)O (stereo not shown) [KF116]
- effect on viral entry (incoming genomic RNA in target cells) [1]: does not significantly compromise viral entry
- effect on HIV-1 Gag/Gag-Pol protein processing [2]: did not affect
- effect on virus particle production [2]: did not affect
- EC50 ([3]; Human immunodeficiency virus 1, read-out: EC50, Early Stage, target cells, inhibitor added to target cells, untreated virions): 50900 ± 4300 nM
- EC50 ([3]; read-out: EC50, Early Stage, target cells, inhibitor added to target cells, untreated virions): ~50000 nM
- IC50 ([4]; Human immunodeficiency virus 1, read-out: Antiviral activity (IC50), HIV-1NL4-3, full replication cycle): ~24 nM
- EC50 ([4]; Human immunodeficiency virus 1, read-out: EC50, Full Replication Cycle, KF116 added to both producer and target cells, mean ± SD, three experiments): 24 nM
- % in RefSeq (HIV-1 integration frequency) ([5]; Producer, 100 nM): 82.67%
- % in known genes (HIV-1 integration frequency) ([5]; Producer, 100 nM): 83.79%
- % in RefSeq (HIV-1 integration frequency) [5, 15]: 81.17%
- % in known genes (HIV-1 integration frequency) [5, 15]: 82.38%
- % in RefSeq (HIV-1 integration frequency) [5, 16]: 83.17%
- % in known genes (HIV-1 integration frequency) [5, 16]: 84.31%
- effect on replication intermediates in target cells of virions produced in presence of inhibitor [6]: sharply reduced levels of early and late RT products
- effect on replication intermediates when inhibitor added to target cells [6]: had no effects on reverse transcription, integration, levels of 2-LTRs, or viral expression
- EC50 ([7]; read-out: EC50, WT producer cells): ~69 nM
- EC50 ([7]; read-out: EC50, WT target cells): > 50000 nM
- inhibition of HIV-1 expression ([8]; 5 µM): did not significantly inhibit HIV-1 expression
- inhibition of HIV-1 expression ([8]; 10 µM): did not significantly inhibit HIV-1 expression
- reduction in target cell HIV-1 expression ([8]; virus-producer cells treated with 0.1 µM): ~77%
- effect of complete loss of LEDGF/p75 protein in virus-producer cells on IC50 values [9]: did not alter
- EC50 ([9]; read-out: EC50, KO producer cells): ~75 nM
- EC50 ([9]; read-out: EC50, KO target cells): ~1400 nM
- EC50 [10]: ~30 nM
- IC50 [11]: 127 ± 10 nM
- A128T IN HIV-1NL4-3 replication in infected cells [12]: effectively impaired
- Selectivity ratio, IC50 IN-LEDGF/EC50 aberrant IN multimerization [13]: 58.5
- effect on annealing of tRNALys3 primer to viral RNA template (primer extension) [14]: did not significantly affect
